Reference: patent US20070027118A1 (priority 2005, published 2007)
Read-outs that look alike come from different tables or passages of the source.

Key:
11β-hsd-1 enzyme [1] = target: T1, 11β-hsd-1 enzyme (Homo sapiens, UniProt P28845); experiment: biochemical; settings: for inhibition at 0.1 µM: read-out: % Inh @ 0.1 μM; for inhibition: read-out: % Inh @ 0.1 mM
Procedure: Percentage of inhibition was determined in a 100 mM Triethanolamine buffer, pH 8.0, 200 mM NaCl, 0.02% n-dodecyl β-D-maltoside and 5 mM β-ME. A typical reaction was carried on a Corning® u-bottom 96-well plate and is described as follows: 11β-hsd-1 enzyme (5 nM, final concentration) was pre-incubated in the presence of the inhibitor and NADPH (500 μM, final concentration) for at least 30 minutes
in the assay buffer. When pre-incubation was completed, the reaction was initiated by adding the regenerating system (2 mM Glucose-6-Phosphate, 1U/mL Glucose-6-Phosphate dehydrogenase, and 6 mM MgCl2, all the concentration reported are final in the assay buffer), and 3H-cortisone (200 nM, final concentration). After 60 minutes, 60 μL of the assay mixture was transferred to a second 96-well plate and mixed with an equal volume of dimethylsulfoxide to stop the reaction. A 15 μL aliquot from the reaction mixture was loaded into a C-18 column (Polaris C18-A, 50×4.6 mm, 5 μ, 180 Angstrom from Varian) connected to an automated High-throughput Liquid Chromatography instrument developed by Cohesive Technologies Inc of Franklin, Mass., with a […] model 3 Radio-HPLC detector from IN/US of Tampa, Fla. The substrate and product peaks were separated by using an isocratic mixture of 43:57 methanol to water (v/v) at a flow rate of 1.0 mL/min.
Percent Inhibition was calculated based on the following equation: (1-(3H-Cortisol peak area in the […] of inhibitor)×100).

11β-hsd-1 enzyme [2] = target: T1, 11β-hsd-1 enzyme; experiment: biochemical
Procedure: The 11β-hsd-1 assay was performed in a 100 mM Triethanolamine buffer pH 8.0, containing 200 mM NaCl, 0.02% n-dodecyl β-D-maltoside, 5% glycerol, 5 mM β-mercaptoethanol. A typical reaction for the determination of Kiapp values was carried at R.T. in a Corning® u-bottom 96-well plate and is described as follows: 11β-hsd-1 enzyme (5 nM, final concentration) was pre-incubated in the presence of the inhibitor and NADPH (500 μM, final concentration) for at least 30 minutes in the assay buffer. When pre-incubation was completed, the reaction was initiated by adding the regenerating system (2 mM Glucose-6-Phosphate, 1U/mL Glucose-6-Phosphate dehydrogenase, and 6 mM MgCl2, all the concentration reported are final in the assay buffer), and 3H-cortisone (200 nM, final concentration). After 60 minutes, 60 μL of the assay mixture was transferred to a second 96-well plate and mixed with an equal volume of dimethylsulfoxide to stop the reaction. A 15 μL aliquot from the reaction mixture was loaded into a C-18 column (Polaris C18-A, 50×4.6 mm, 5 μ, 180 Angstrom from Varian) connected to an automated High-throughput Liquid Chromatography instrument developed by Cohesive Technologies Inc, of Franklin, Mass. USA, with a β-RAM model 3 Radio-HPLC detector from IN/US, of Tampa, Fla. USA. The substrate and product peaks were separated by using an isocratic mixture of 43:57 methanol to water (v/v) at a flow rate of 1.0 mL/min.
The initial reaction velocities were measured by stopping the reaction at 60 min and by measuring the area of product formation in the absence and the presence of various concentrations of inhibitors. The Kiapp values were determined using the equation for tight-binding inhibitor developed by Morrison, J. F. (Morrison J. F. Biochim BiophysActa. 1969; 185: 269-86).
The radiolabeled [1,2-3H]-cortisone is commercially available from American Radiolabeled Chemicals Inc of St. Louis, Mo. USA. NADPH, Glucose-6-Phosphate, and Glucose-6-Phosphate dehydrogenase were purchased from Sigma®.
(Morrison J. F. Biochim Biophys Acta. 1969; 185: 269-86).

T1 sequence (P28845 whole entry, species assumed): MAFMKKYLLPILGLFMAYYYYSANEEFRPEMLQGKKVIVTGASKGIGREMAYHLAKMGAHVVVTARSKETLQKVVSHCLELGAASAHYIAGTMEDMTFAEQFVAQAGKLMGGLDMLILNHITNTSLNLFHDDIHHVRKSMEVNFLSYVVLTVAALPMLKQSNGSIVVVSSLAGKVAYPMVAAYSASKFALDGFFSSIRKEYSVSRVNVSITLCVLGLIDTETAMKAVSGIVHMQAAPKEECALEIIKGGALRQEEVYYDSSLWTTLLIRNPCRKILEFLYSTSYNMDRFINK

| SMILES | inhibition at 0.1 µM (11β-hsd-1 enzyme [1]; Table 1, inhibitor 0.1 μM) [%] | Ki (11β-hsd-1 enzyme [2]) [nM] | inhibition (11β-hsd-1 enzyme [1]) [%] | inhibition at 0.1 µM (11β-hsd-1 enzyme [1]) [%] |
| --- | --- | --- | --- | --- |
| N#Cc1ccc(N2CCN(S(=O)(=O)Nc3cccc(CO)n3)CC2)nc1 [Example 29, 4-(5-cyanopyridin-2-yl)-N-[6-(hydroxymethyl)pyridin-2-yl]piperazine-1-sulfonamide] | 95 | 13 |  |  |
| Cc1cccc(NS(=O)(=O)N2CCN(c3ncc(C(F)(F)F)cc3Cl)CC2)n1 [Example 128, 4-[3-chloro-5-(trifluoromethyl)pyridin-2-yl]-N-(6-methylpyridin-2-yl)piperazine-1-sulfonamide] |  | 13 | 100 |  |
| CCc1cccc(NS(=O)(=O)N2CCCC(COC)CC2)n1 (stereo not shown) [Example 93, N-(6-ethylpyridin-2-yl)-4-(methoxymethyl)azepane-1-sulfonamide] |  | 110 | 69.7 |  |
| CCc1cccc(NS(=O)(=O)N2CCC(CCc3ccccc3)CC2)n1 [Example 104, N-(6-ethylpyridin-2-yl)-4-(2-phenylethyl)piperidine-1-sulfonamide] |  | 6.9 | 100 |  |
| CCc1cccc(NS(=O)(=O)N2CCCC(COc3ccccc3F)C2)n1 (stereo not shown) [Example 114, N-(6-ethylpyridin-2-yl)-3-[(2-fluorophenoxy)methyl]piperi-dine-1-sulfonamide] |  | 15 | 97.4 |  |
| CCc1cccc(NS(=O)(=O)N2CCCCC2c2ccc(F)cc2)n1 (stereo not shown) [Example 105, N-(6-ethylpyridin-2-yl)-2-(4-fluorophenyl)piperidine-1-sulfonamide] |  | 8.2 | 90.1 |  |
| CCc1cccc(NS(=O)(=O)N2CCC(CCc3ccccn3)CC2)n1 [Example 80, N-(6-ethylpyridin-2-yl)-4-(2-pyridin-2-ylethyl)piperidine-1-sulfonamide] |  | 5.6 | 93.8 |  |
| Cc1cccc(NS(=O)(=O)N2CCN(c3ncccn3)CC2)n1 [Example 125, N-(6-methylpyridin-2-yl)-4-pyrimidin-2-ylpiperazine-1-sulfonamide] |  | 28.5 | 75.1 |  |
| Cc1cccc(NS(=O)(=O)N2CCc3ccc(S(C)(=O)=O)cc3CC2)n1 [Example 10] |  | 25.5 |  | 79.9 |
| CCc1cccc(NS(=O)(=O)N2CCC(C(F)(F)F)CC2)n1 [Example 106, N-(6-ethylpyridin-2-yl)-4-(trifluoromethyl)piperidine-1-sulfonamide] |  | 7 | 100 |  |
| O=S(=O)(Nc1ccc2ccccc2n1)N1CCN(c2ccccn2)CC1 [Example 156, 4-pyridin-2-yl-N-quinolin-2-ylpiperazine-1-sulfonamide] |  | 17 | 92.9 |  |

More lines, now with the values ahead:

| inhibition at 0.1 µM (11β-hsd-1 enzyme [1]; Table 1, inhibitor 0.1 μM) [%] | Ki (11β-hsd-1 enzyme [2]) [nM] | inhibition (11β-hsd-1 enzyme [1]) [%] | inhibition at 0.1 µM (11β-hsd-1 enzyme [1]) [%] | SMILES |
| --- | --- | --- | --- | --- |
|  | 1.4 | 100 |  | COc1cccc(N2CCN(S(=O)(=O)Nc3ccc4ccccc4n3)CC2)n1 [Example 165, 4-(6-methoxypyridin-2-yl)-N-quinolin-2-ylpiperazine-1-sulfonamide] |
|  | 71 | 69.1 |  | CCc1cccc(NS(=O)(=O)N2CCN(c3ncccc3C(F)(F)F)CC2)n1 [Example 198, N-(6-ethylpyridin-2-yl)-4-[3-(trifluoromethyl)pyridin-2-yl]piperazine-1-sulfonamide] |
|  | 20 | 100 |  | O=S(=O)(Nc1ccc2ccccc2n1)N1CCCN(c2nc3cc(Cl)ccc3o2)CC1 [Example 180, 4-(5-chloro-13-benzoxazol-2-yl)-N-quinolin-2-yl-14-diazepane-1-sulfonamide] |
|  | 20 | 96.8 |  | CCc1cccc(NS(=O)(=O)N2CCCN(Cc3ccc(F)cc3)CC2)n1 [Example 200, N-(6-ethylpyridin-2-yl)-4-(4-fluorobenzyl)-14-diazepane-1-sulfonamide] |
|  | 1 | 100 |  | CCc1cccc(NS(=O)(=O)N2CCc3c(Cl)cccc3C2)n1 [Example 190, 5-chloro-N-(6-ethylpyridin-2-yl)-34-dihydroisoquinoline-2(1H)-sulfonamide] |
|  | 35 | 79.5 |  | CCc1cccc(NS(=O)(=O)N2CCCCCC2)n1 [Example 197, N-(6-ethylpyridin-2-yl)azepane-1-sulfonamide] |
